From patent US20240124470A1, “FIVE-MEMBERED RING DERIVATIVE AND MEDICAL USE THEREOF” (SICHUAN HAISCO PHARMACEUTICAL CO., LTD., priority 2020, published 2024)
Like-named read-outs stand apart in the source and are kept apart here.

Columns and labels:
GLP-1 receptor = biological target: T1, GLP-1 receptor (Homo sapiens, UniProt P43220); assay: HEK293/CRE-luc/GLP-1R cell luciferase reporter test (agonistic effect on GLP-1 receptor); type: cell-based; conditions: HEK293/CRE-luc/GLP-1R cells
T1 construct: expressed in transfected cells
T1 sequence (P43220 24-463): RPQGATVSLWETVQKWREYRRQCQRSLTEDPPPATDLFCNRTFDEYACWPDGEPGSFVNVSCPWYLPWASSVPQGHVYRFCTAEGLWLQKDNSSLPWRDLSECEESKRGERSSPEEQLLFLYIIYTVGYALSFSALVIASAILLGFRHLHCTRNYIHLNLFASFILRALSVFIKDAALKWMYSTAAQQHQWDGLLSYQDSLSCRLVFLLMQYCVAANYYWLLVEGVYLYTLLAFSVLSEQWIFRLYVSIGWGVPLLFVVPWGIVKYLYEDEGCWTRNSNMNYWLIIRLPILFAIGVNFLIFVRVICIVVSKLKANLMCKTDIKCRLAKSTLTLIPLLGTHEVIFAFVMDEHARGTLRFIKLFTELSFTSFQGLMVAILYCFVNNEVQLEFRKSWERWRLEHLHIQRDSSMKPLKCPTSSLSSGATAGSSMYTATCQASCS
Procedure: 1. HEK293/CRE-luc/GLP-1β cell viability
Cell: HEK293/CRE-luc/GLP-1R
Cell culture medium: DMEM+10% FBS+400 μg/ml G418+100 μg/ml Hygromycin B
Frozen stock solution: 90% FBS, 10% (V/V) DMSO
Detection buffer: DMEM+1% FBS
Cells were cultured in DMEM medium+10% FBS+400 μg/ml G418+100 μg/ml Hygromycin B in a CO2 incubator at 37° C., and passaged once every 3-4 days.
Cell plating: Trypsinization adjusted the cell density to 1.67×10^5 cells/mL; 60 μL of cells per well (10000 cells/well) was inoculated in a 384-well plate containing compounds; A NC well (negative control) and a background well (no cells) were set. Incubation was performed for about 18+2 h in the incubator.
Compounds were serially diluted with the detection buffer, and the detection concentration was 0.01 nM-1000 nM.
The cell culture plate was removed and all supernatant was aspirated from the cells. The cells were washed gently 2 times with 1×PBS.
The diluted compound was added to a 384-well plate (10 μL/well), and three replicate wells were set for each concentration. 10 μL of the detection buffer was added to the NC well, sealed and incubated at 37° C. for 6 hours.
The plate was removed, the cells were allowed to equilibrate to room temperature (at least 15 min), and then all supernatant was aspirated from the cells.
Steady-Glo® Reagent was added to the sample well at 10 μL/well and incubated at room temperature for 5 min to lyse the cells.
The test results were read with a BMG microplate reader.
The mean background value was calculated.
The induction factor (Fold of induction, FI)=(induction well value−background value)/(negative control well value −background value) was calculated.
The EC50 value of the sample was calculated using Graphpad Prim 8.0 software using four-parameter fitting analysis.
Mean and standard error (Mean±SEM) were calculated for all results and Graphpad Prism software was used for statistical analysis. Specific data were presented in the form of graphs. P<0.05 was considered to be statistically different.

CYP1A2 = biological target: T2, CYP1A2 (Homo sapiens, UniProt P05177); assay: Cytochrome P450 isoenzyme inhibition test, human liver microsomes: CYP1A2; type: in vitro ADME; conditions: human liver microsomes 0.1 mg/mL; read-out: IC50, inhibitory activity on CYP1A2
T2 construct: pre-incubated with the human liver microsome solutions containing 5 enzyme mixed substrates; from tissue; host or cells: human liver microsomes
T2 sequence (P05177 1-516): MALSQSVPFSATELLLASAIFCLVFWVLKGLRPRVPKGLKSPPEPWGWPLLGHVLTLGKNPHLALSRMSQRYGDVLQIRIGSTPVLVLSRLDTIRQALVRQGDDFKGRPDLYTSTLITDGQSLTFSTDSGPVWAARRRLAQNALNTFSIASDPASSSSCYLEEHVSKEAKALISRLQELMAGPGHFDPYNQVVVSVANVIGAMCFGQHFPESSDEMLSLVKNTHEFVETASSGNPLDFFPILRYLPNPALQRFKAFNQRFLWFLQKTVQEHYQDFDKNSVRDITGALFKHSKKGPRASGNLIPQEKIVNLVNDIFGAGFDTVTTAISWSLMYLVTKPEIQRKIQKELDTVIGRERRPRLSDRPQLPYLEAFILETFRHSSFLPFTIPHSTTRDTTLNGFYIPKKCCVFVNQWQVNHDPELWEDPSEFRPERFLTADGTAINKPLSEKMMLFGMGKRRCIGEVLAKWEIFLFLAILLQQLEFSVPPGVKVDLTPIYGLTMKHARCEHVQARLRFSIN
Procedure: 9. Cytochrome P450 Isoenzyme Inhibition Test Experimental objective: The inhibitory effect of the test compound on the activity of human liver microsomal cytochrome P450 isoenzyme (CYP1A2, CYP2C19, CYP2D6 and CYP3A4) was determined. Experimental operation: The test compound at an incubation concentration of 0, 0.03, 0.1, 0.3, 1, 3, 10, 30 and 100 μM was pre-incubated with the human liver microsome solutions containing 5 enzyme mixed substrates (liver microsome concentration: 0.1 mg/mL) in a water bath at 37° C. for 10 min, respectively, and then a coenzyme factor (NADPH) was added to start the reaction. After incubation in a water bath at 37° C. for 10 min, the reaction was terminated by adding glacial acetonitrile solution containing an internal standard, shaken for 1 min, centrifuged at 4° C. and 10,000 rpm for 10 min, and the supernatant was taken for LC/MS/MS analysis. The amount of metabolites produced by each CYP enzyme substrate was detected. The activity of each CYP isoenzyme was reflected by the production rate of each metabolite. […]

[1] = Stability test in human liver microsomes; type: in vitro ADME
Procedure: 7. Stability Test in Human Liver Microsomes At 37° C., 1 μM of the test compound was incubated with human liver microsomes (0.5 mg/mL) supplemented with NADPH regeneration system for 5, 10, 20, 30 and 60 minutes, and then LC-MS/MS method was used to detect the concentration of the test compound in the generated sample. The half-life (T1/2) and inherent clearance rate (CLint(mic)) of the compound in human liver microsome solution were obtained by calculating at the corresponding time points and the remaining percentage of the compound.

[2] = Evaluation of pharmacokinetics in cynomolgus monkeys; type: in vivo; conditions: intravenous 2 mg/kg and intragastric 10 mg/kg
Procedure: Evaluation of Pharmacokinetics in Cynomolgus Monkeys
Male cynomolgus monkeys (raised in Suzhou LEOLAB Bio Tech. Co., Ltd.), weighing 3-5 kg, were fasted overnight (14-18 h), […]. On the day of the experiment, 6 male cynomolgus monkeys were divided into 2 groups, with 3 […] in each group. The test compound was administered intravenously and intragastrically at doses of 2 mg/kg and 10 mg/kg respectively. Before administration and 5 min, 15 min, 30 min, 1 h, 2 h, 4 h, 6 h, 8 h 10 h, 12 h and 24 h after administration, 1 ml of blood was collected via the limb vein, placed in an EDTAK2 centrifuge tube, and centrifuged at 6000 rpm at 4° C. for 5 min, and then the plasma was collected. The plasma sample was added to an acetonitrile solution containing an internal standard (dexamethasone, 500 ng/mL), vortexed and centrifuged at 10,000 rpm for 10 min, and the supernatant was taken for LC-MS/MS analysis. Pharmacokinetic parameters were calculated using the non-compartmental model in WinNonlin Version 8.0 (Pharsight, Mountain View, CA) pharmacokinetic software. Conclusion: The compounds of the present invention have good metabolic properties.

## N#Cc1ccc(COc2cccc(-c3ccc(Cc4nc5sc(C(=O)O)cc5n4C[C@@H]4CCO4)c(F)c3)n2)c(F)c1 [Compound 6, (S)-2-(4-(6-((4-cyano-2-fluorobenzyl)oxy)pyridin-2-yl)-2-fluorobenzyl)-1-(oxetan-2-ylmethyl)-1H-thieno[2,3-d]imidazole-5-carboxylic acid]
GLP-1 receptor; 6 hours incubation, class symbols, read-out: EC50
  EC50: < 10 nM
GLP-1 receptor; bound stated, read-out: EC50 value
  EC50: < 10 nM
CYP1A2
  IC50: > 50000 nM
[1]; human liver microsomes 0.5 mg/mL, 1 μM compound, NADPH, 37° C.
  half-life at 1 μM: 9.23 h
[1]; human liver microsomes 0.5 mg/mL, 1 μM compound, NADPH, 37° C., read-out: CLint(mic)
  microsomal CLint at 1 μM: 2.5 µL/min/mg
[1]; human liver microsomes test (section 7)
  T1/2 ratio of compound 6 to compound DZ-6: greater than 3
[2]
  clearance rate in monkeys: low clearance rate
  half-life in monkeys: long half-life
